Test results reported in US20190015518A1, “DRUG DELIVERY COMPOSITIONS AND METHODS” (priority 2016, published 2019).
“And” between values parts separate entries of the source, which are not always exact repeats. Identical values can stand only once.

Tests used:
[1] = test system: 4T1.2-neu (murine breast cancer cells); experiment: Anti-proliferative activity (Resazurin Blue, 72 hours); assay type: cell-based; details: mean ± S.E.M., cisplatin basis
Protocol: (§2) MDA-1986 (human head and neck squamous cell carcinoma), 4T1.2-neu (murine breast cancer cells), and A2058 (human melanoma) cells were maintained in Dulbecco's Modified Eagle Medium (DMEM, Corning, Manassas, Va.) with 4.5 g/L glucose, 4.5 g/L L-glutamine, and 10% fetal bovine serum in a humidified incubator at 37° C. and 5% CO2. Cells were seeded into 96-well plates (3,000 cells/well in 90 μL media) and allowed to attach overnight. […] Resazurin Blue (Acros Organics, Geel, Belgium) in PBS was added to each well (5-μM final concentration; 10-μL addition) and incubated at 37° C. for 4 hours. Fluorescence (λex 550 nm, λem 605 nm) was quantified with a SpectraMax Gemini XS plate-reader (Molecular Devices, Sunnyvale, Calif.). The relative growth of cells incubated with each compound concentration was normalized to vehicle-treated controls (100% proliferation). Data from at least three separate experiments performed in duplicate was analyzed using non-linear regression (GraphPad Prism 5.0) to generate IC50 values.

[2] = test system: spontaneous canine cancers; details: dogs; cited from earlier work
[3] = test system: A2058 (human melanoma) cells; experiment: Anti-proliferative activity (Resazurin Blue, 72 hours); assay type: cell-based; details: mean ± S.E.M., cisplatin basis
Protocol: as §2

white blood cell DNA = experiment: Pt-DNA adduct quantitation in white blood cell DNA; assay type: in vivo, rat; details: for Pt-DNA adduct Tmax / Pt-DNA adduct AUC: cisplatin i.v. 10 mg/kg, HA-Lys-Pt s.c. 10 mg/kg cisplatin basis; for Pt-DNA adduct AUC: 10 mg/kg
Protocol: (§1) Whole blood was centrifuged (1500×g, 5 min., 4° C., no brake). Top layer (plasma) and middle layer (white blood cells) were transferred to new tubes. Plasma was frozen (−20° C.) until analysis. […] The white blood cell pellet was washed twice with cold PBS and re-suspended in 9 mL of white blood cell buffer (10-mM Tris, pH 7.4, 2.3% NaCl, 2-mM EDTA), and 900 μL of 1.1-M NH4HCO3, 900 μL of 10% SDS, and 75 μL of 2% Proteinase K were added and incubated at 42° C. overnight. Then, 3.3 mL of 5-M NaCl was added, samples shaken vigorously, and centrifuged twice (3200×g, 5 min, 4° C.), each time discarding the pellet. DNA was pelleted with 20 mL of ice-cold 100% ethanol and centrifuged (3200×g, 5 min, 4° C.); the DNA pellet was washed twice with 75% ethanol, re-suspended in water, and quantitated. DNA was digested in 1% HNO3 (800 μL total volume) overnight at 70° C. DNA samples were diluted 1:10 in 1% HNO3 and plasma samples were diluted 1:10,000 in 1% HNO3. Diluted samples were analyzed for Pt content using ICP-MS with a calibration curve from 1-1000 ppt.

[4] = test system: MDA-1986 (human head and neck squamous cell carcinoma) cells; experiment: Anti-proliferative activity (Resazurin Blue, 72 hours); assay type: cell-based
Protocol: as §2

[5] = test system: MDA-1986 head and neck tumors; experiment: Anticancer efficacy, orthotopic xenograft model of human HNSCC; assay type: in vivo, mouse; parameters: key to tumor response, Modified RECIST: PR=Partial Response (>30% reduction); PD=Progressive Disease (>30% tumor growth); SD=Stable Disease (neither PR nor PD criteria met)
Protocol: The MDA-1986 cells were prepared in PBS at a concentration of 2×10^7 cells/mL. Female NU/NU mice were anesthetized under 2% isoflurane in O2, and 50 μL of cell solution was injected into the oral sub-mucosa of the mice using a 27-ga needle. All procedures in the animal study were approved by the Institutional Animal Care and Use Committee of the University of Kansas. Tumor growth was monitored twice weekly by measurement with a digital caliper, and the tumor volume was calculated as 0.52×(width)^2×(length). […] The drugs were given weekly for 3 consecutive weeks.

[6] = human, in vivo; cited from earlier work
[7] = Viscosity reduction by excipients (rheometer); assay type: physicochemical; details: sucrose 0.1, 0.5 and 1 M, 37° C.
[8] = Viscosity reduction by excipients (rheometer); assay type: physicochemical; details: 37° C.
Protocol: The viscosity of 29 kDa HA (60 mg/mL), 33HA-Lys (33 kDa HA with linker, 8 mg/mL on HA basis), and 33HA-Lys-Pt (41.7 mg/mL on HA basis) with increasing concentration of mannitol (0, 0.1, 0.5 and 1 M) were measured using a rheometer at 37° C.
The solutions were incubated in the dark for 20 hours using a CLAY ADAMS® Brand Nutator. After 20 hours, the pH of the solutions were adjusted to pH 6.0 using 1N NaOH. A Brookfield DVIII Ultra Programmable Rheometer was used to measure the viscosity of three 500-μL samples of each solution. Measurements were taken for each at three different RPMs, where the torque ranged from 10-100%. Values for viscosity were not recorded until at least 30 seconds after the motor was started, after the torque readings were stabilized.
The solutions were incubated in the dark for 20 hours using a CLAY ADAMS® Brand Nutator. After 20 hours, the pH of the solutions were adjusted to pH 5.0 or 6.0 using 1N NaOH. A Brookfield DVIII Ultra Programmable Rheometer was used to measure the viscosity of three 500-μL samples of each solution. Measurements were taken for each at three different RPMs, where the torque ranged from 10-100%. Values for viscosity were not recorded until at least 30 seconds after the motor was started, after the torque readings were stabilized.

[9] = Toxicity of HA-Lys-Pt in healthy Balb/c mice; assay type: in vivo, mouse
Protocol: The toxicity of HA-Lys-Pt was evaluated in healthy Balb/c mice. […] Another group of Balb/c mice was injected subcutaneously with 8.86 (N=2), 13.3 (N=2), 17.7 (N=2), 20 (N=2), 30 (N=2), and 40 mg/kg (N=1) of the 33HA-Lys-Pt. Their body weights and symptoms of toxicities were monitored twice per week for up to 2 months.

Plasma Pt quantitation = details: cisplatin i.v. 10 mg/kg; HA-Lys-Pt s.c. 10 mg/kg cisplatin basis
Protocol: as §1

[10] = HPLC of small molecular platinum species after storage; assay type: physicochemical; details: solution stored at 4° C. for 4 days
Protocol: Small molecular platinum species including cisplatin, Pt-monoaqua, and Pt-diaqua were quantified by HPLC. The mobile phase was sodium phosphate solution (10-mM, pH 3.0) at a flow rate of 0.25 mL/min on an Alltech® 250 mm×4.6 mm M/M RP8/cation column thermostated at 25° C. […] The filtrate was immediately injected into the HPLC.

[11] = Transmission electron microscopy, particle diameter; assay type: physicochemical; details: TEM
Excerpt: FIGS. 4A and 4B show the transmission electron microscopy images of HA-Lys-Pt (75 kD HA) before and after salt treatment for 2 weeks. The average diameters of HA-Lys-Pt particles ranged from 25 to 50 nm. […] Intense darkness results from the high electron density of Pt rich area. […] Reduced clustering of the salt treated nanoparticles may be due to reduced hydrophobicity due to release of Pt and availability of charged chelator groups.

[12] = test system: MDA-1986 cells that overexpress CD44; experiment: CD44 specificity and cellular uptake of HA-GluH-Pt; assay type: cell-based, human; details: 30-μg/mL, 6 h
Protocol: CD44 specificity and cellular internalization mechanism of HA-GluH-Pt was investigated using MDA-1986 cells that overexpress CD44. Chlorpromazine was used as an endocytosis inhibitor. Cells were pretreated with 25-μM chlorpromazine or 10-μg/mL anti-CD44 1 h before the addition of 30-μg/mL HA-GluH-Pt (on platinum basis) and subsequent incubation for 6 h. Cells were trypsinized, lysed by sonication and diluted 20 fold prior to ICP-MS analysis.

[13] = Toxicity of HA-GluH-Pt in mice; assay type: in vivo, mouse; details: single s.c. 20, 40, 67 and 100 mg/kg, 2 months
Protocol: The toxicity of HA-GluH-Pt was evaluated in blab/C mice. Four blab/C mice were injected subcutaneously with 20, 40, 67 and 100 mg/kg HA-GluH-Pt. The body weights of the animals were checked weekly for 2 months.

[14] = test system: head and neck squamous cell carcinoma cells, MDA-1986; experiment: Cytotoxicity of HA-GluH-Pt (Resazurin blue); assay type: cell-based, human; details: 72 hours
Protocol: Cell growth inhibition was determined in 96-well plates using head and neck squamous cell carcinoma cells, MDA-1986. […] Plates were seeded with 3,000 cells/well in 90 uL of media (6 replicates/sample). Ten microliters of HA-GluH-Pt conjugate solutions were applied after 24 hours. Resazurin blue in 10 uL of PBS was applied to each well (final concentration 5 uM) after another 72 hours.

N.N.[Cl][Pt][Cl] [Cisplatin, cisplatin, reference compound]
IC50 [1]: 9.4 ± 2.5 µM
IC50 ([1]; listed as cisplatin): ~8 µM
cure in heterogeneous oral squamous cell carcinomas [2]: 7%
IC50 [3]: 6.8 ± 2.7 µM
IC50 ([3]; listed as cisplatin): ~8 µM
Pt-DNA adduct Tmax (white blood cell DNA): 1 h
Pt-DNA adduct AUC (white blood cell DNA): 1466 pg Pt×h/μg DNA and 1255 pg Pt×h/μg DNA
levels of adduct formation over the time course (white blood cell DNA; i.v. 10 mg/kg, 15 minutes to 96 hours): 11-16 pg Pt/μg DNA
IC50 ([4]; mean ± S.E.M., cisplatin basis): 8.2 ± 0.6 µM
IC50 ([4]; mean ± S.E.M., cisplatin basis, listed as cisplatin): ~8 µM
tumor response, Modified RECIST ([5]; animal #1): PR (PR=Partial Response (>30% reduction))
tumor response, Modified RECIST ([5]; animal #2): PD (PD=Progressive Disease (>30% tumor growth))
tumor response, Modified RECIST ([5]; animal #3): SD
tumor response, Modified RECIST ([5]; animal #4): PR (PR=Partial Response (>30% reduction))
tumor response, Modified RECIST ([5]; animal #5): PD (PD=Progressive Disease (>30% tumor growth))
tumor response, Modified RECIST ([5]; animal #6): PR (PR=Partial Response (>30% reduction))
tumor response, Modified RECIST ([5]; animal #7): PD (PD=Progressive Disease (>30% tumor growth))
tumor response, Modified RECIST ([5]; animal #8): PD (PD=Progressive Disease (>30% tumor growth))
rate of partial response (PR) ([5]; three weekly injections): 37.5%
rate of progressive disease (PD) ([5]; three weekly injections): 50%

N.N.O=C([O-])C1(C(=O)[O-])CCC1.[Pt+2] [carboplatin]
patients in whom thrombocytopenia is dose limiting [6]: 25%

HA6.4-cis-[Pt(NH3)2(Nα-Acetyl-L-lysine)] [HA6.4-lys-Pt]
cell growth inhibition ([4]; highest dose tested (300 μM)): < 50%
IC50 ([4]; mean ± S.E.M., cisplatin basis): > 500 µM

HA-cis-[Pt(NH3)2(N^α-Acetyl-L-Lysine)] [33HA-Lys-Pt]
effect on viscosity [7]: reduced the viscosity
effect on viscosity ([8]; mannitol 0.1, 0.5 and 1 M): reduced the viscosity
effect on viscosity ([8]; trehalose 0.1, 0.5 and 1 M): reduced the viscosity
IC50 ([4]; mean ± S.E.M., cisplatin basis, listed as HA-Lys-Pt 33 kDa): 20.7 ± 2.9 µM
IC50 ([4]; text b180, listed as HA-Lys-Pt 33 kDa): ~40 µM
tumor response, Modified RECIST ([5]; animal #1): PR (PR=Partial Response (>30% reduction))
tumor response, Modified RECIST ([5]; animal #2): PR (PR=Partial Response (>30% reduction))
tumor response, Modified RECIST ([5]; animal #3): SD
tumor response, Modified RECIST ([5]; animal #4): PR (PR=Partial Response (>30% reduction))
tumor response, Modified RECIST ([5]; animal #5): PR (PR=Partial Response (>30% reduction))
tumor response, Modified RECIST ([5]; animal #6): SD
tumor response, Modified RECIST ([5]; animal #7): PR (PR=Partial Response (>30% reduction))
tumor response, Modified RECIST ([5]; animal #8): PR (PR=Partial Response (>30% reduction))
rate of partial response (PR) ([5]; three weekly injections): 75%

HA-cis-[Pt(NH3)2(N^α-Acetyl-L-Lysine)] [HA-Lys-Pt]
body weight recovery ([9]; 20 or 30 mg/kg (on cisplatin basis), weight loss began one-week post treatment): returned to pre-dose weight within another two weeks
body weight recovery ([9]; highest dose (40 mg/kg), compared with 20 or 30 mg/kg): one additional week
acute toxic reactions including lethargy, paralysis, and respiratory depression ([9]; single s.c. injection, any dose level): not observed
Pt-DNA adduct Tmax (white blood cell DNA): 48 h
Pt-DNA adduct AUC (white blood cell DNA): 5247 pg Pt×h/μg DNA
plasma Pt Cmax (Plasma Pt quantitation): 4.1±2.4 μg Pt/mL plasma
plasma Pt Tmax (Plasma Pt quantitation): 24 h
weight loss ([5]; single dose of 20 mg/kg): less than 5%
weight loss ([5]; three weekly doses of 20 mg/kg, after the last injection): more than 20%
Pt-monoaqua and Pt-diaqua detection [10]: Neither Pt-monoaqua nor Pt-diaqua was detected
diameters of nanoparticles ([11]; after salt treatment for 2 weeks): 25-50 nm
diameters of nanoparticles ([11]; freshly made): 25-50 nm

HA-cis-[Pt(NH3)2(Nα-AcetylGluH)] [HA-GluH-Pt]
cellular uptake in anti-CD44 antibody and chlorpromazine treated cells [12]: did not differ significantly from the non-treated control
weight loss [13]: Less than 5%
IC50 [14]: 623 µM
